From US20250034216A1, “STEREOSELECTIVE COVALENT LIGANDS FOR ONCOGENIC AND IMMUNOLOGICAL PROTEINS” (The Scripps Research Institute, priority 2021, published 2025)

Assays:
[1] = test system: 20S core proteasomal complex; experiment: SEC-MS elution profile; assay type: cell-based, human; conditions: 22Rv1 cells, 20 μM, 3 h
Method: Sample preparation: Cells (adherent: 15 cm dishes, suspension: 2 million cells/mL) were treated with electrophilic probes in situ for indicated times and concentrations (elaborated fragments: 20 μM, 3 h), washed with ice-cold PBS, and flash frozen in liquid nitrogen. Cell pellets were lysed by sonication (8 pulses, 40% power) in 600 μL ice-cold PBS supplemented with cOmplete protease inhibitors (1 tablet/10 mL of PBS), ultracentrifuged for 20 min at 100,000 g, then normalized to a standardized concentration (typically 1.5 to 2.5 mg/mL). Clarified lysate was injected into a Superdex 200 Increase 10/300 GL column attached to an AKTA pure FPLC system. Proteins were fractionated using an isocratic gradient (PBS) running at 0.5 mL/min into 5 fractions 2 mL wide, beginning at 8 mL and ending at 18 mL. Eluate was collected into 15 mL tubes containing 12 mL of acetone at 4C. […]
Data processing: Fractional distributions for each peptide-spectra match with a total TMT reporter ion intensity were calculated by dividing the reporter ion intensity for each TMT channel by the summed intensity across the 5 TMT channels corresponding to a single treatment condition (Equation 1). […] Euclidean distances (SE shift scores, Equation 2) were calculated using the average elution profile for each protein across replicates, combined by treatment condition and cell line. […]

[2] = target: T1, recombinant FLAG-PSME1 WT or C22A (Homo sapiens, UniProt Q06323, C22A); experiment: SEC analysis by western blot; assay type: cell-based; conditions: 22Rv1 cells expressing FLAG-PSME1 C22A, 10 μM, 3 h
T1 construct: FLAG; expressed in transfected cells; host or cells: 22Rv1 pLenti3.3/TR (tetracycline-induced)
T1 sequence (Q06323 whole entry C22A): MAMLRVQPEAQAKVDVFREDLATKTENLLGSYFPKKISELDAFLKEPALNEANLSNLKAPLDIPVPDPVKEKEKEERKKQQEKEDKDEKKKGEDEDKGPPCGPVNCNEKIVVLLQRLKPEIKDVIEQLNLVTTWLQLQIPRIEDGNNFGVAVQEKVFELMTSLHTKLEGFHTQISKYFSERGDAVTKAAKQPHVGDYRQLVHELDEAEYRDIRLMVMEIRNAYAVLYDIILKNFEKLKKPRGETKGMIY
Method: (§1) For experiments using transiently overexpressed constructs (FLAG-PSME1 WT/C22A, HA-ACAT1 WT/C126A), Stable clonal 22Rv1 pLenti3.3/TR were transfected using polyethylenimine and treated with tetracycline ([…]) for 48 h prior to treatment with electrophilic probes.
(§2) Cells were lysed and fractioned by SEC. After acetone precipitation and resuspension, 4× gel loading buffer was added to eluates, and proteins were resolved using SDS-PAGE (4-20% acrylamide, Tris-glycine gel), and transferred to a nitrocellulose membrane. The membrane was blocked with 5% milk in Tris-buffered saline (20 mM Tris-HCl 7.6, 150 mM NaCl) with 0.1% tween (TBST) and incubated with primary antibody overnight. After TBST wash (3 times), the membrane was incubated with secondary antibody, washed with TBST again, developed with ECL western blotting detection reagents, and recorded on a Bio-Rad ChemiDoc MP. Relative band intensities were analyzed using ImageJ.

[3] = target: T2, recombinant FLAG-PSME1 WT or C22A (Homo sapiens, UniProt Q06323); experiment: SEC analysis by western blot; assay type: cell-based; conditions: 22Rv1 cells expressing FLAG-PSME1 WT, 10 μM, 3 h
T2 construct: FLAG; expressed in transfected cells; host or cells: 22Rv1 pLenti3.3/TR (tetracycline-induced)
T2 sequence (Q06323 whole entry, stated change not applied): as the sequence (Q06323 whole entry C22A) above, with A22C counted along it
Method: as §1, §2

[4] = target: T3, recombinant FLAG-PSME1 (PSME1_C22) (Homo sapiens, UniProt Q06323); experiment: Gel-based ABPP for PSME1 cysteine engagement; assay type: binding; conditions: HEK293T lysates expressing FLAG-PSME1, in vitro, then 2.5 μM MY-11B 30 min; read-out: IC50 for engaging PSME1_C22 (competition against MY-11B labeling)
T3 construct: FLAG (C); expressed in transfected cells; host or cells: HEK293T (lysate treated in vitro)
T3 sequence (Q06323 whole entry): as the sequence (Q06323 whole entry C22A) above, with A22C counted along it
Method: C-terminally FLAG-tagged PSME1 WT or C22A were transiently expressed in HEK293T cells, harvested 48 hours later, then cells were divided into aliquots, flash frozen and stored at −80 C. On the day of the experiment, an aliquot of cells were thawed, lysed by sonication in ice-cold PBS supplemented with cOmplete protease inhibitors (1 tablet/10 mL of PBS). normalized to 2.0 mg/mL, and divided into 25 μL aliquots. 1 μL of DMSO or compound (25× stock) was incubated with lysates for 1.5 hours at RT, followed by incubation with 1 μL of 62.5 μM MY-11B click probe (final concentration […]) for an additional 30 minutes. Reagents for the CuAAC click reaction were pre-mixed prior to addition to the samples. After 1 hour of click labeling, 4×SDS running buffer was added to samples, which were then analyzed by SDS-PAGE. ImageJ was used to quantify rhodamine band intensities, and GraphPad PRISM Version 9.0.0 was used to generate IC50 curves (four-parameter variable slope least squares regression).

| SEC size shift of recombinant PSME1 C22A mutant [2] | SEC size shift of recombinant WT-PSME1 [3] | IC50 [4] [nM] | SMILES | SEC migration of 20S core proteasomal complex subunits [1] |
| --- | --- | --- | --- | --- |
| unaffected | clear size shift |  | C=CC(=O)N1C[C@H](c2ccc(Br)cc2)[C@@H]1C(=O)Nc1cccc2cccnc12 [MY-1B, (2R,3S)-1-acryloyl-3-(4-bromophenyl)-N-(quinolin-8-yl)azetidine-2-carboxamide] | unaffected |
|  |  | ~400 | CC#CC(=O)N1C[C@H](c2ccc(Br)cc2)[C@@H]1C(=O)Nc1cccc2cccnc12 [MY-45B, (2R,3S)-3-(4-bromophenyl)-1-(but-2-ynoyl)-N-(quinolin-8-yl)azetidine-2-carboxamide] |  |
